# Results: US5223169A, “Hydrolase surfactant systems and their use in laundering” (priority 1991, dated 1993)
# Tests used:
# Assay in all cases: pH-stat assay of triglyceride emulsion hydrolysis; critical oil-to-surfactant ratio
# [1] = test system: enzyme from P. putida ATCC 53552 (lipase GC-1065); assay type: biochemical, Pseudomonas putida
# Description: (§1) To determine the critical ratio for any specific enzyme-surfactant combination, aliquots of an aqueous solution, each containing a determined (constant) amount of the enzyme which is effective in the absence of any surfactant to hydrolyze the triglycerides in an oily stain on a determined (constant) amount of a fabric soiled by a determined (constant) amount of a triglyceride oil, are mixed with a determined (constant) amount of a surfactant which is within the range of the amounts conventionally present in home laundry solutions, e.g., from about 0.2 to 1.5. mM, and which is effective to inhibit the hydrolyzing activity of the enzyme. To the aliquots are added a hydrolysis activator, e.g., trioctanoin, in increasing amounts and the hydrolyzing activity of the enzyme in the various solutions is determined.
# (§2) The experiments determining enzyme activity, such as those set out in Tables IA and IB, were carried out as follows:
# (§3) The desired amount of triglyceride was weighed into an appropriate size beaker, on a Mettler balance (model number AE163). The corresponding amount of surfactant was added to the triglyceride, from a previously prepared aqueous surfactant stock solution, and the triglyceride and surfactant mixed manually. The sample was then adjusted to the desired weight using doubly distilled H2 O. Emulsification of the sample was carried out, prior to assaying enzyme activity, with a probe sonicator (Braun-Sonic model 2000), on ice, for approx. 2 minutes.
# (§4) (ii) Enzyme Activity Measurement:
# (§5) This was achieved by monitoring the rate of acid liberation, from the enzymatic hydrolysis of the triglycerides in the emulsion. The assay was initiated by adding approx. 2 ppm lipase to 10 ml of the prepared emulsion. The acid liberated was monitored by autotitration, on a Radiometer pH-stat (model number ABU80) to an endpoint of a pH of 10. Initial rates were recorded for the first 5 minutes of the reaction, and the reaction rates reported as μmole H^+ titrated . min ^-1 mgE^-1. Occasionally enzyme activity is reported as % total oil hydrolyzed in 14 min. In these examples, the reaction was allowed to run for 14 min. and the amount of acid titrated recorded. The % total oil (triglyceride) hydrolyzed was then calculated by dividing the recorded value with the theoretically calculated value assuming three equivalents of oleic acid was produced for each triglyceride equivalent. All assays were run at ambient temperatures.
# [2] = biological target: T1, Enzyme Lipolase (Thermomyces lanuginosus, UniProt O59952); assay type: biochemical, A. oryzae; settings: for Critical Ratio, LIPOLASE: trioctanoin emulsions, lipase ~2 ppm; for R, critical (minimum activating molar) ratio, LIPOLASE: triolein emulsions
# T1 construct: purchased Novo Industri; host or cells: Aspergillus oryzae
# T1 sequence (O59952 23-291): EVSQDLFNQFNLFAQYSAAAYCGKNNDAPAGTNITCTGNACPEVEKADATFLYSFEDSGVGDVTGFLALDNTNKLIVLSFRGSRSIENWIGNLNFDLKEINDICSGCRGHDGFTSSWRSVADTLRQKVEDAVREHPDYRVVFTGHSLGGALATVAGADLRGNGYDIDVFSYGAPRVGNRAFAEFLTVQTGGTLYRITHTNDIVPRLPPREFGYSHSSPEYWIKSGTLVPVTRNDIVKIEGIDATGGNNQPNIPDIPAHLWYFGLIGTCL
# Description: as §1, §2, §3, §4, §5
# [3] = test system: Enzyme Amano 68S; assay type: biochemical, P. sp.; settings: for Critical Ratio / Enzyme Activity: surfactant conc.: SDS 1 mM
# Description: as §1, §2, §3, §4, §5
# [4] = biological target: T2, Enzyme Amano P (Burkholderia cepacia, UniProt P22088); assay type: biochemical, P. fluorescens
# T2 construct: purchased Amano Co
# T2 sequence (P22088 45-364): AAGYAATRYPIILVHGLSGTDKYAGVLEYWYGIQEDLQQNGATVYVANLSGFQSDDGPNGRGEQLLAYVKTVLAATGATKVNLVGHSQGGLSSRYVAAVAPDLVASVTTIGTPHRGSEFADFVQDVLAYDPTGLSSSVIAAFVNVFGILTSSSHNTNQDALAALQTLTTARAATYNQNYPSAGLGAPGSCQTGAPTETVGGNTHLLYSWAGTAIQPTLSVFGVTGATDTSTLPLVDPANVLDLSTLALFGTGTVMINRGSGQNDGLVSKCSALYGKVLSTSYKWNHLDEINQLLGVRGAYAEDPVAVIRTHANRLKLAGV
# Description: as §1, §2, §3, §4, §5
# [5] = Table II, trioctanoin, surfactant conc.: SDS 2 mM, C12 LAS 1 mM, Neodol 25-3S 2 mM, Neodol 25-9 0.5 mM, Surfonic JL80X 0.5 mM, Triton X100 2 mM
# [6] = Table Summary, second block of lines (corresponds to triolein Tables VI-IX)
# [7] = Table VI, triolein, surfactant conc.: SDS 1 mM, C12 LAS 0.5 mM, Neodol 25-3S 1 mM, Neodol 25-9 0.5 mM, Surfonic JL80X 0.5 mM
# [8] = triolein emulsions, high conc.: SDS 10 mM, C12 LAS 5 mM, Neodol 25-9 5 mM, Neodol 25-3S 5 mM, Surfonic JL-80X 2.5 mM
# [9] = Table IV, trioctanoin, C12 LAS 0.2 mM, Neodol 25-3S 0.5 mM, Neodol 25-9 0.5 mM, Surfonic JL80X 0.5 mM
# [10] = Table VIII, triolein, C12 LAS 0.5 mM, Neodol 25-3S 0.5 mM, Neodol 25-9 0.5 mM, Surfonic JL80X 2.5 mM
# [11] = Table III, trioctanoin, surfactant conc.: SDS 2 mM, C12 LAS 1 mM, Neodol 25-3S 2 mM, Neodol 25-9 0.5 mM, Surfonic JL80X 0.5 mM
smiles,measurement,setting,value
CCCCCCCCCCCCc1ccc(S(=O)(=O)O)cc1 [C12 LAS],Critical Ratio,[1]; [5],5-10
same,Enzyme Activity,[1]; [5],250 μmole H^+ released min^-1 mgE^
same,"critical ratio class, enzyme From ATCC 53552",[1]; [6],0 (means a critical ratio of 1.0-10)
same,Critical Ratio,[1]; [7],5-10
same,Enzyme Activity,[1]; [7],50 μmole H^+ released min^-1 mgE^
same,Critical Ratio,"[1]; Table XVIII, triolein, Pseudomonas putida enzyme, surfactant 0.5 mM",5-10
same,Critical Ratio,"[1]; Table XVIII, triolein, Pseudomonas putida enzyme, surfactant 5.0 mM",1-5
same,"Specific Activity determined from initial rates, GC-1065, High","[1]; trioctanoin emulsions, high surfactant conc. as E41",250 μeq acid/min.mg
same,"Critical Ratio, GC-1065, High","[1]; trioctanoin emulsions, lipase ~2 ppm, high surfactant conc.: SDS 10 mM, C12 LAS 5 mM, Neodol 25-9 5 mM, Neodol 25-3S 10 mM, Surfonic JL-80X 5 mM, Triton X-100 10 mM, C16 DAPS 10 mM",5-10
same,"Critical Ratio, GC-1065, Low","[1]; trioctanoin emulsions, lipase ~2 ppm, low surfactant conc.: SDS 2 mM, C12 LAS 1 mM, Neodol 25-9 0.5 mM, Neodol 25-3S 2 mM, Surfonic JL-80X 0.5 mM, Triton X-100 2 mM, C16 DAPS 0.5 mM",2-10
same,"Specific Activity determined from initial rates, GC-1065, Low","[1]; trioctanoin emulsions, low surfactant conc. as E40",250 μeq acid/min.mg
same,"Activity (specific hydrolysis activity from initial rates), GC-1065, High","[1]; triolein emulsions, high conc. as E55",60 μeq acid/min./mg
same,"R, critical (minimum activating molar) ratio, GC-1065, High",[1]; [8],1-5
same,"Activity (specific hydrolysis activity from initial rates), GC-1065, Low","[1]; triolein emulsions, low conc. as E54",50 μeq acid/min./mg
same,"R, critical (minimum activating molar) ratio, GC-1065, Low","[1]; triolein emulsions, low conc.: SDS 1 mM, C12 LAS 0.5 mM, Neodol 25-9 0.5 mM, Neodol 25-3S 1 mM, Surfonic JL-80X 0.5 mM",5-10
same,Critical Ratio,"[2]; Table IX, triolein, C12 LAS 0.5 mM",30-40
same,"critical ratio class, Lipolase",[2]; [6],- (means a critical ratio of 10-100)
same,Critical Ratio,"[2]; Table V, trioctanoin, each surfactant 0.5 mM",0.5-1
same,"Critical Ratio, LIPOLASE",[2]; surfactant 0.5 mM,0.5-1
same,"Critical Ratio, LIPOLASE",[2]; surfactant 5 mM,0.5-1
same,"R, critical (minimum activating molar) ratio, LIPOLASE",[2]; surfactant 0.5 mM,30-40
same,"R, critical (minimum activating molar) ratio, LIPOLASE",[2]; surfactant 5.0,40-50
same,Critical Ratio,[3]; [9],5-10
same,Enzyme Activity,[3]; [9],175 μmole H^+ released min^-1 mgE^
same,"critical ratio class, Amano 68S",[3]; [6],- (means a critical ratio of 10-100)
same,Critical Ratio,[3]; [10],10-20
same,Enzyme Activity,[3]; [10],30 μmole H^+ released min^-1 mgE^
same,"Specific Activity determined from initial rates, AMANO 68S, High","[3]; trioctanoin emulsions, high surfactant conc. as E45",200 μeq acid/min.mg
same,"Critical Ratio, AMANO 68S, High","[3]; trioctanoin emulsions, lipase ~2 ppm, high conc.: SDS 10 mM, C12 LAS 2 mM, Neodol 25-9 5 mM, Neodol 25-3S 10 mM, Surfonic JL-80X 5 mM",1-5
same,"Critical Ratio, AMANO 68S, Low","[3]; trioctanoin emulsions, lipase ~2 ppm, low conc.: SDS 1 mM, C12 LAS 0.2 mM, Neodol 25-9 0.5 mM, Neodol 25-3S 0.5 mM, Surfonic JL-80X 0.5 mM",5-10
same,"Specific Activity determined from initial rates, AMANO 68S, Low","[3]; trioctanoin emulsions, low surfactant conc. as E44",175 μeq acid/min.mg
same,"Activity (specific hydrolysis activity from initial rates), AMANO 68S, High","[3]; triolein emulsions, high conc. as E59",55 μeq acid/min./mg
same,"R, critical (minimum activating molar) ratio, AMANO 68S, High","[3]; triolein emulsions, high conc.: SDS 10 mM, C12 LAS 5 mM, Neodol 25-9 5 mM, Neodol 25-3S 5 mM, Surfonic JL-80X 2.5 mm",10-20
same,"Activity (specific hydrolysis activity from initial rates), AMANO 68S, Low","[3]; triolein emulsions, low conc. as E58",30 μeq acid/min./mg
same,"R, critical (minimum activating molar) ratio, AMANO 68S, Low","[3]; triolein emulsions, low conc.: SDS 1 mM, C12 LAS 0.5 mM, Neodol 25-9 0.5 mM, Neodol 25-3S 0.5 mM, Surfonic JL-80X 2.5 mM",10-20
same,Critical Ratio,[4]; [11],5-20
same,Enzyme Activity,[4]; [11],70 μmole H^+ released min^-1 mgE^
same,"critical ratio class, Amano P",[4]; [6],- (means a critical ratio of 10-100)
same,Enzyme Activity,"[4]; Table VII, triolein, surfactant conc.: SDS 1 mM, others 0.5 mM",13 μmole H^+ released min^-1 mgE^
same,"Specific Activity determined from initial rates, AMANO P, High","[4]; trioctanoin emulsions, high surfactant conc. as E43",70 μeq acid/min.mg
same,"Critical Ratio, AMANO P, High","[4]; trioctanoin emulsions, lipase ~2 ppm, high conc.: SDS 10 mM, C12 LAS 5 mM, Neodol 25-9 5 mM, Neodol 25-3S 20 mM, Surfonic JL-80X 5 mM",5-10
same,"Critical Ratio, AMANO P, Low","[4]; trioctanoin emulsions, lipase ~2 ppm, low conc.: SDS 2 mM, C12 LAS 1 mM, Neodol 25-9 0.5 mM, Neodol 25-3S 2.0 mM, Surfonic JL-80X 0.5 mM",5-10
same,"Specific Activity determined from initial rates, AMANO P, Low","[4]; trioctanoin emulsions, low surfactant conc. as E42",70 μeq acid/min.mg
same,"Activity (specific hydrolysis activity from initial rates), AMANO P, High","[4]; triolein emulsions, high conc. as E57",26 μeq acid/min./mg
same,"R, critical (minimum activating molar) ratio, AMANO P, High",[4]; [8],10-20
same,"Activity (specific hydrolysis activity from initial rates), AMANO P, Low","[4]; triolein emulsions, low conc. as E56",13 μeq acid/min./mg
same,"R, critical (minimum activating molar) ratio, AMANO P, Low","[4]; triolein emulsions, low conc.: SDS 1 mM, others 0.5 mM",10-20
